Results on 12 compounds are retold here after PMC7113690 (Antiviral Research, 2015).

For series [1], the system named is EBOV (Zaire strain) GP/HIV core pseudovirus (pEBOV). The series can be described thus: organism not typed. The format is cell-based, Ebola virus (Zaire strain). The conditions noted are these: for EC50: read-out: EC50 pEBOV.
Series [2] has as its system VSV G/HIV core pseudovirus (pVSV). The series can be described thus: organism not typed. The format is cell-based. Conditions: for EC50: read-out: EC50 pVSV.
Series [3] relates to EBOV pseudovirus (pEBOV) entry into Vero cells. The format is cell-based, Ebola virus (Zaire strain).
In series [4] the test system is Ebola virus (Zaire strain) minigenome. In kind it is cell-based.
For series [5], the system named is enterovirus 71 (EV-A71, strain G082). The format is cell-based.
Series [6] concerns Coxsackievirus A16 (CV-A16, strain SHZH05-1). In kind it is cell-based.
In series [7] the test system is poliovirus 1 (PV1, strain Sabin). In kind it is cell-based.
The next series has as its system eGFP-EBOV. The conditions noted are these: cited from earlier work.
The subject of a further series is EBOV. Conditions: mouse, in vivo, 14 mg/kg; cited from earlier work.
For another series, the system named is bacteremia. The conditions noted are these: in vivo, 40 mg/kg; cited from earlier work.
For series [8] the following is noted: cited from earlier work.
The conditions of series [9]: in vivo; cited from earlier work.

Where a name gives a salt, the structure may show the parent alone. Read-outs that look alike come from different tables or passages of the source.

Regarding `O=C(OCC(O)CO)c1ccccc1Nc1ccnc2cc(Cl)ccc12` (centres unmarked) [Glafenine], the concentration for a half-maximal effect (EC50) (as a rule, the concentration that produces a half-maximal response) in series [1] (Vero, 72 h) is 11.1 µM; in [2] (Vero, 72 h), 10.9 µM.

On to `Oc1c(I)cc(I)c2cccnc12` [Iodoquinol], for which the concentration for a half-maximal effect (EC50) in [1] (Vero, 72 h) is 3.5 µM; in [2] (Vero, 72 h), 3.45 µM.

For the compound `O=C1C=C2C=C[C@@H]3C[C@@]2(O1)[C@H]1CCCCN31` [Securinine], the concentration giving a half-maximal response (EC50) in series [1] (Vero, 72 h) is 27.1 µM; in [2] (Vero, 72 h) it was 26.6 µM.

Consider `Fc1ccc([C@@H]2CCNC[C@H]2COc2ccc3c(c2)OCO3)cc1` [Paroxetine], for which the EC50 came to 2.4 µM in series [1] (Vero, 72 h) and 7.39 µM in series [2] (Vero, 72 h).

Take `CN(C)CCOc1ccc(/C(=C(/CCCl)c2ccccc2)c2ccccc2)cc1` [Toremiphene]: the EC50 in series [1] (Vero, 72 h) was found to be 0.38 µM; in series [2] (Vero, 72 h), 7.53 µM.

With `CN[C@H](CC(C)C)C(=O)N[C@H]1C(=O)N[C@@H](CC(N)=O)C(=O)N[C@H]2C(=O)N[C@H]3C(=O)N[C@H](C(=O)N[C@H](C(=O)O)c4cc(O)cc(O)c4-c4cc3ccc4O)[C@H](O)c3ccc(c(Cl)c3)Oc3cc2cc(c3O[C@@H]2O[C@H](CO)[C@@H](O)[C@H](O)[C@H]2O[C@H]2C[C@](C)(N)[C@H](O)[C@H](C)O2)Oc2ccc(cc2Cl)[C@H]1O` [vancomycin], the inhibition (as a rule, the relative decrease from the control value, in per cent) at 125 µM in series [1] (Vero, read-out: inhibition of pEBOV) is 24.7%.

`C[C@@H]1CC[C@H]2[C@@H](C)C(=O)O[C@@H]3O[C@@]4(C)CC[C@@H]1[C@]32OO4` [Artemisinin]: the EC50 was 74.1 µM in series [1] (Vero, 72 h) and 162 µM in series [2] (Vero, 72 h).

For the compound `C[C@H](N)[C@H](O)c1ccc(O)c(O)c1` [Levonordefrin], the EC50 is above 50 µM in [1] (Vero, 72 h) and above 50 µM in [2] (Vero, 72 h).

As for `CC(C(=O)O)c1ccc(N2Cc3ccccc3C2=O)cc1` (centres unmarked) [Indoprofen], the 50% effective concentration (EC50) in series [1] (Vero, 72 h) turned out to be 9.37 µM; in series [2] (Vero, 72 h), 8.51 µM.

In the case of `CN1CCC(=C2c3ccccc3Sc3ccccc32)CC1` [Pimethixene maleate], the concentration giving a half-maximal response (EC50) in series [1] (Vero, 72 h) is 10.7 µM; in [2] (Vero, 72 h) it was 14.8 µM.

Regarding `CCN(CC)CCOCCOC(=O)C(CC)(CC)c1ccccc1` [Oxeladin], the EC50 in [1] (Vero, 72 h) amounted to 8.06 µM; in series [2] (Vero, 72 h) it was 38.1 µM.

Consider Teicoplanin, for which the “inhibition of pEBOV infection (in words)” value in [1] (125 µM) is reported as “completely inhibited”. For the same compound, the concentration for a half-maximal effect (EC50) in series [1] stood at 2.38 µM. For the same compound, the 90% effect concentration (EC90) (commonly the concentration needed for an effect of 90%) in series [1] (read-out: EC90 pEBOV) was 9.36 µM. The “inhibition of pVSV infection” value in series [2] (125 µM) is given as “less than 20%”. Further, the concentration for a half-maximal effect (EC50) in series [2] was above 125 µM. In series [3], the “inhibition of pEBOV infection, during infection” value is reported as “efficiently inhibited infection”; the “inhibition of pEBOV infection, post-attachment” value is given as “no inhibition was detected”; the “inhibition of pEBOV infection, pre-attachment” value was “efficiently inhibited infection”. For the same compound, in series [4], the “inhibition of EBOV minigenome replication” value was “did not inhibit”. The “inhibition of EV-A71” value in series [5] is “no inhibition was observed”. Moreover, the “inhibition of CV-A16” value in series [6] was “no inhibition was observed”. Also, the “inhibition of PV1” value in series [7] was “no inhibition was observed”. In addition, in the series with Vero cells, the CC50 (in general, the concentration that lowers cell viability or growth by half) was above 125 µM and the cytotoxicity entry was “without cytotoxicity”. The “activity against eGFP-EBOV in vitro” value with eGFP-EBOV is on record as “active”. For the same compound, the “protection of EBOV-infected mice” value in the series with EBOV is “no protection was observed”. In the series on bacteremia, the “safety and decrease of bacteremia” value was “safe and effectively in decreasing bacteremia”. The “bound to plasma protein” value in series [8] is 90%. For the same compound, in series [9], the “Cmin at which toxicity is seen” value was at least 60000 ng/mL and the “trough plasma concentration (Cmin)” value is 20000 to 60000 ng/mL.
